Assay results from ChEMBL document CHEMBL1201862, “PubChem BioAssay data set” (2004).
Active and inactive are the calls of the source.

Columns and labels:
[1] = target: T1, Endoribonuclease toxin MazF (Escherichia coli K-12, UniProt P0AE70); test: MazF toxin RNase activators, dose response, biochemical, fluorescence, single-stranded RNA substrate, uHTS hits (AID 588481); assay type: functional
T1 sequence (P0AE70 whole entry): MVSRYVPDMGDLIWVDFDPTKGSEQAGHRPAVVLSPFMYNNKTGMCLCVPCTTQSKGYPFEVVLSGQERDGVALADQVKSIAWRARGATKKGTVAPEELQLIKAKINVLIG

[2] = target: T1, Endoribonuclease toxin MazF; test: fluorescent RNA oligo signal without MazF, dose response, counter-screen for MazEF activator project, biochemical, fluorescence, single-stranded RNase substrate (AID 588502); assay type: functional
[3] = target: T2, Protein RecA (Mycobacterium tuberculosis, UniProt P9WHJ3); test: Fluorescence Cell-Free Homogeneous Dose Retest to Identify Inhibitors of RecA-Intein Splicing Activity. [Related pubchem assays (depositor defined):AID2097, AID2223, AID489010, AID492950]; assay type: functional
T2 sequence (P9WHJ3 whole entry): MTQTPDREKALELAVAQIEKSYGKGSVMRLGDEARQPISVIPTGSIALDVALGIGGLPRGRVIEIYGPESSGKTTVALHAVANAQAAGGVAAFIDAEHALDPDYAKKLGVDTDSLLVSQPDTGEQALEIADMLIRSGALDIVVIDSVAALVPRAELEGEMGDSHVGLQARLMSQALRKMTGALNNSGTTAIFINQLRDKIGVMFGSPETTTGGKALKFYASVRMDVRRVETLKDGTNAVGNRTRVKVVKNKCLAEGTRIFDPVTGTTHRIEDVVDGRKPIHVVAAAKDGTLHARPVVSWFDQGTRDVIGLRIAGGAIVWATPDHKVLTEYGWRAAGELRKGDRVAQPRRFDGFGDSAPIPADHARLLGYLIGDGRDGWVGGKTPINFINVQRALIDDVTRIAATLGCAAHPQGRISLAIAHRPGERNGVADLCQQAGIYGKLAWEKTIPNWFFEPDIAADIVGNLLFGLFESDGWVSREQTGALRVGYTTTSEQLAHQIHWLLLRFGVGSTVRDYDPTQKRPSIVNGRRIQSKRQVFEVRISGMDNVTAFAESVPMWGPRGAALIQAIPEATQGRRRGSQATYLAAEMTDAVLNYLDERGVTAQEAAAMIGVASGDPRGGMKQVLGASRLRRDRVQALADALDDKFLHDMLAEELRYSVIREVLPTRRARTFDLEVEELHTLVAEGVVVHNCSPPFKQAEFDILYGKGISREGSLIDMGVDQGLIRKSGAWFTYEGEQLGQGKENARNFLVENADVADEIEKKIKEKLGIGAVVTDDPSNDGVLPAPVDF

[4] = target: T3, Replicative DNA helicase DnaB (Mycobacterium tuberculosis, UniProt P9WMR3); test: DnaB intein splicing inhibitors, dose response, biochemical, cell-free fluorescence (AID 449749); assay type: functional
T3 sequence (P9WMR3 whole entry): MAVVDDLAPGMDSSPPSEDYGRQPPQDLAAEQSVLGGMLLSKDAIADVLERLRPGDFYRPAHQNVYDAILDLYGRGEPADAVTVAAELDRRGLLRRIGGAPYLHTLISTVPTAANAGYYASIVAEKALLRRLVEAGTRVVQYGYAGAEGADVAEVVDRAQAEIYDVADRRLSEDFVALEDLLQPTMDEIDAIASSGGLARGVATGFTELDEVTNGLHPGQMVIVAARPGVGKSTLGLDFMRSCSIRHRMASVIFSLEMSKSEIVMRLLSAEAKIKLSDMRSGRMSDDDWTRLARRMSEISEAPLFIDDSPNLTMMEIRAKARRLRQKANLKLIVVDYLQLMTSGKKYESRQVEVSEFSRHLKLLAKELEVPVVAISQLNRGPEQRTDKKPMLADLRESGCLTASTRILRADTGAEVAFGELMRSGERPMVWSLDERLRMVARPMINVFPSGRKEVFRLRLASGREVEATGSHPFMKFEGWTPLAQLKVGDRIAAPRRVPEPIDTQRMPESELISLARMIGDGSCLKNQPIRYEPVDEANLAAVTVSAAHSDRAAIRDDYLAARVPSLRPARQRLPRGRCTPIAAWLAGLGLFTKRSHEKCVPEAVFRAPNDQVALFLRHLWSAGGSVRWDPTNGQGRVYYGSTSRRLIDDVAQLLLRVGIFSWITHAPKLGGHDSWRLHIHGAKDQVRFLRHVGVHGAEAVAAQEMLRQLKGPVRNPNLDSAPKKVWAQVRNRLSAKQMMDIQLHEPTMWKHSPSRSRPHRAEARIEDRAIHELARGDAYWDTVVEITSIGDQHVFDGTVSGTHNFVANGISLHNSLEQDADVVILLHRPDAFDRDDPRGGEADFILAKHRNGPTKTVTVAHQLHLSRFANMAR

[5] = LGR2 antagonists, dose response, cell-based, HEK293, CRE-luciferase reporter, cherry pick, set 2 (AID 743343); assay type: functional;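 further: transfected cells were stimulated with diluted bursicon conditioned medium after compound addition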
[6] = HEK293 cell cytotoxicity, dose response, cytotoxicity control, plate reader, cherry-picked samples (AID 743446); assay type: functional, cell-based
[7] = HepG2 cell cytotoxicity, dose response, cytotoxicity control, plate reader, cherry-pick, antagonist series (AID 743416); assay type: functional, cell-based
[8] = A549 cell cytotoxicity, dose response, cytotoxicity control, plate reader, cherry-pick, antagonist series (AID 743412); assay type: functional, cell-based
[9] = MC4R antagonists, dose response, counter-screen for LGR2 antagonist project, cell-based, plate reader, cherry pick (AID 743444); assay type: functional;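 further: transfected HEK 293 cells stimulated with alpha-MSH peptide; potency of inhibitors of the alpha-MSH evoked signal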
[10] = P. falciparum late gametocyte killing, dose response, luminescence (AID 1117278); assay type: functional, cell-based;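 further: gametocytes exposed to compound for 24 hours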
[11] = Jurkat T cell cytotoxicity, dose response, cytotoxicity control for P. falciparum gametocyte viability project, luminescence (AID 1117277); assay type: functional, cell-based;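 further: potency reflects loss of cellular ATP meaning fewer viable cells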
[12] = test system: Vero; test: cells; assay type: functional, cell-based; details: Chlorocebus sabaeus
[13] = target: T4, High affinity choline transporter 1 (Homo sapiens, UniProt Q9GZV3); test: CHT inhibitors, dose response, cell-based, 5-point CRC, membrane potential dye (AID 504840); assay type: functional
T4 sequence (Q9GZV3 whole entry): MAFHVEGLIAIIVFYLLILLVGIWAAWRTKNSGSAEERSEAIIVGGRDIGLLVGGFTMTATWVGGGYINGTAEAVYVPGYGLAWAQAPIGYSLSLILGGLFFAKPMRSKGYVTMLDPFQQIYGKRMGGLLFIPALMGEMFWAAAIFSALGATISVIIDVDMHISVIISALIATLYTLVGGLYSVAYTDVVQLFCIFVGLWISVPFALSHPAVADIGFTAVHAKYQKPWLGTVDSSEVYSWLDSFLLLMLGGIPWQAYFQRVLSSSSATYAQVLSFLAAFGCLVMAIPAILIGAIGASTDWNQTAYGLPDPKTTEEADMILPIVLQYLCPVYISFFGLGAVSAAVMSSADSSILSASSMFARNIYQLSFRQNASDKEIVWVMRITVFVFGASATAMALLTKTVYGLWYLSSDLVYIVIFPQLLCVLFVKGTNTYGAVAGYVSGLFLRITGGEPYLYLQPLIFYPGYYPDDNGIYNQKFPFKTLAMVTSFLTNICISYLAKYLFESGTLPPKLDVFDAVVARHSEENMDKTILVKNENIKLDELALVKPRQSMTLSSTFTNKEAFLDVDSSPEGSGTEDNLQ

[14] = target: T5, Coagulation factor XII (Homo sapiens, UniProt P00748); assay type: functional;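 further: activated factor XIIa alpha cleaving a fluorogenic AMC peptide substrate; inhibitor potency from loss of enzyme activity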
T5 sequence (P00748 whole entry): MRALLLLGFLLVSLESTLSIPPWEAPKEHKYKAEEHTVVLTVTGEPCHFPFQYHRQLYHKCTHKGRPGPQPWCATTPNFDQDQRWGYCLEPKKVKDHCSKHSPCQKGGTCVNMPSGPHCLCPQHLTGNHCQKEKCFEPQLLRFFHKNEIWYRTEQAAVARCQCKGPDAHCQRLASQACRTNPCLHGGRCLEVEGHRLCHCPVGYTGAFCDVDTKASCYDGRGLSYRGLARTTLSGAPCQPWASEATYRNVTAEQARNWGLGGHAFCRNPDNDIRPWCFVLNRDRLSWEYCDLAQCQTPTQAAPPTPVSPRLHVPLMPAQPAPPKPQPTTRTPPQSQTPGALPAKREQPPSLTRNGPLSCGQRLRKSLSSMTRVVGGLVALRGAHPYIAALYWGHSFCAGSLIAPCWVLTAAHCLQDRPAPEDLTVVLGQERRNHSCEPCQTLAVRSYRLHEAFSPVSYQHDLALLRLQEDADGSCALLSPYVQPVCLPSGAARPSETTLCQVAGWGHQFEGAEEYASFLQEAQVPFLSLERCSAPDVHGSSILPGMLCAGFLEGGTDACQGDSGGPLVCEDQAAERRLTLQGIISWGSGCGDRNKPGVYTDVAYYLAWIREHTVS

[15] = target: Paired box protein Pax-8 (Homo sapiens, UniProt Q06710); test: inhibitors of PAX8-driven TPO luciferase reporter, dose response, RMG-I cells, cherry-pick (AID 687027); assay type: functional, cell-based;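 further: luciferase reporter driven by Pax8 target thyroperoxidase promoter measured by SteadyGlo luminescence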
[16] = target: T6, Mannose-6-phosphate isomerase (Homo sapiens, UniProt P34949); test: human PMI inhibitors, high substrate, primary screen, biochemical, fluorescence intensity, high mannose 6-phosphate (AID 1220)
T6 sequence (P34949 whole entry): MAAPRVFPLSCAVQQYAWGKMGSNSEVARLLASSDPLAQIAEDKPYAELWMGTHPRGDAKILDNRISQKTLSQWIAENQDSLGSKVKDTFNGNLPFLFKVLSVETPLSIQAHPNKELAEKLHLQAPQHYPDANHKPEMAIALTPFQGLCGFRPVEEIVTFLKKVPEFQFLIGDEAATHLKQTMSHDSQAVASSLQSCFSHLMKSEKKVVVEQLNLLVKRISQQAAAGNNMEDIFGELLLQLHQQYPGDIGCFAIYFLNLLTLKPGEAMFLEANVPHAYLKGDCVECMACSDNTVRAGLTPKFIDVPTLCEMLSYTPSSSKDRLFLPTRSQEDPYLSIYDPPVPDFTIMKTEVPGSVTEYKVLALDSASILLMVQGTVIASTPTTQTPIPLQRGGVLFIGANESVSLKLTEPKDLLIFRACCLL

[17] = target: Glyceraldehyde-3-phosphate dehydrogenase (Homo sapiens, UniProt P04406)
Glyceraldehyde-3-phosphate dehydrogenase, sequence (P04406 whole entry): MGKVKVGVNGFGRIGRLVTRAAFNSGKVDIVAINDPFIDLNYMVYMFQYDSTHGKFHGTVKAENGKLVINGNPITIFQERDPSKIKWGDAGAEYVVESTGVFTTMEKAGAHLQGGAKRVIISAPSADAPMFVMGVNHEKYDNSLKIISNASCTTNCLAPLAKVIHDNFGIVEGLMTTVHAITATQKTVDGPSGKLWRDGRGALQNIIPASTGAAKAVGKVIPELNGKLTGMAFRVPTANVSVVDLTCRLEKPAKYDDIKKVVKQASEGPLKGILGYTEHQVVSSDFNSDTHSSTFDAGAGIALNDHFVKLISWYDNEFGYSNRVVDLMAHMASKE

Paired box protein Pax-8, sequence (Q06710 whole entry): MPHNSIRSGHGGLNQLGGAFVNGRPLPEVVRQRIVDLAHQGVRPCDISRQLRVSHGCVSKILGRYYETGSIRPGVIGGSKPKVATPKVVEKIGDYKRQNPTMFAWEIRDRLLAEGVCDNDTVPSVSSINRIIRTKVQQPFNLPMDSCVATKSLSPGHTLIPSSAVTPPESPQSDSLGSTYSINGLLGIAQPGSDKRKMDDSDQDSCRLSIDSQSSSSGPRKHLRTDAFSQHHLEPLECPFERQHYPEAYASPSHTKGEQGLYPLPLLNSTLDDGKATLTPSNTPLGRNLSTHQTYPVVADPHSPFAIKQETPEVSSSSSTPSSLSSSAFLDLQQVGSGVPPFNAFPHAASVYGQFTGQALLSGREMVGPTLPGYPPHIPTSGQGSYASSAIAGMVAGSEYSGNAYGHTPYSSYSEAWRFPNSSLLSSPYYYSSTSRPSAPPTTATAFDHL

Which EC50 [1] does the source give for `CCOc1ccc2c(c1)c1nc3ccccc3nc1n2C` here?
Its EC50 is > 99 µM (inactive).

What about the EC50 [2] of the same compound?
Its EC50 is > 99 µM (inactive).

Which EC50 [3] does the source give for `CN(C(=O)c1ccc(S(=O)(=O)c2cccc(Cl)c2)c([N+](=O)[O-])c1)C1CCCCC1` here?
Its EC50 is 4.33 µM (active).

What about the AC50 [4] of the same compound?
The AC50 was 5.56 µM (active).

And the AC50 [5]?
Its AC50 is 5.15 µM (active).

And the AC50 [6]?
Its AC50 is 13.8 µM (active).

What about the AC50 [7] of the same compound?
The AC50 was 16.2 µM (active).

And the AC50 [8]?
Its AC50 is 15.8 µM (active).

And the AC50 [9]?
The AC50 was 7.45 µM (active).

Which IC50 [10] does the source give for `Cc1nn(CCCC(=O)O)c(C)c1[N+](=O)[O-]` here?
The IC50 was > 109 µM (inactive).

And the IC50 [11]?
Its IC50 is > 83.4 µM (inactive).

With `COc1ccc(NC(=O)[C@H](Cc2c[nH]c3ccccc23)NC(=O)[C@@H]2Cc3ccccc3CN2)cc1` as the compound, how does the IC50 [12] read?
The IC50 was 11.8 µM (active).

For `Cc1ccc(C[S+]([O-])Cc2ccc(C(=O)NC3CCC(C)CC3)o2)cc1` (centres undefined), which IC50 [13] is on record?
The IC50 was 13.8 µM (active).

For `CCN(CC)CCCNC(=O)c1cc(-c2ccc(Cl)c(Cl)c2)on1`, which IC50 [13] is on record?
The IC50 was 12.9 µM (active).

For `NS(=O)(=O)c1ccc(Cl)cc1[N+](=O)[O-]`, which IC50 [14] is on record?
Its IC50 is > 50 µM (inactive).

For `Oc1ccccc1-c1nc(NCc2ccccc2)c2ccccc2n1`, which EC50 [1] is on record?
Its EC50 is > 99 µM (inactive).

And the EC50 [2]?
Its EC50 is > 99 µM (inactive).

Which results are given for `Cc1ccc(-n2c(C)nn(Cc3ccc([N+](=O)[O-])cc3)c2=O)cc1`?
IC50 [10]: > 109 µM (inactive); IC50 [11]: > 83.4 µM (inactive)

Which IC50 [14] does the source give for `O=C(Nc1ccc(Cl)c(C(F)(F)F)c1)N1CCCC(O)C1` (centres undefined) here?
Its IC50 is > 50 µM (inactive).

What does the source list for `Cn1nnnc1Sc1ncnc2scc(-c3cccc(C(F)(F)F)c3)c12`?
AC50 [5]: 6.18 µM (active); AC50 [6]: 9.08 µM (active); AC50 [7]: 16.4 µM (active); AC50 [15]: 3.41 µM (active); AC50 [8]: 10.1 µM (active); AC50 [9]: 5.97 µM (active)

Which IC50 [10] does the source give for `CCC(=O)NC(C)C(c1cccs1)N1CCOCC1` (centres undefined) here?
Its IC50 is > 109 µM (inactive).

And the IC50 [11]?
Its IC50 is > 83.3 µM (inactive).

Which IC50 [14] does the source give for `CC(=O)NS(=O)(=O)c1ccc(NC(=S)NC(=O)c2ccco2)cc1` here?
Its IC50 is > 50 µM (inactive).

With `CN(C)S(=O)(=O)c1cccc(NC(=O)COC(=O)COc2ccc(Br)cc2)c1` as the compound, how does the IC50 [10] read?
Its IC50 is > 109 µM (inactive).

What about the IC50 [11] of the same compound?
Its IC50 is > 83.3 µM (inactive).

Which IC50 [13] does the source give for `O=C(Nc1ccc(S(=O)(=O)Nc2cnc3ccccc3n2)cc1)c1cc(F)c(F)cc1Cl` here?
Its IC50 is 12.1 µM (active).

For `COc1cc(C(N)=O)cc(Cl)c1OC`, which IC50 [14] is on record?
Its IC50 is > 50 µM (inactive).

For `O=C(O)COc1ccc(NC(=O)c2cccs2)cc1`, which IC50 [10] is on record?
The IC50 was > 109 µM (inactive).

And the IC50 [11]?
Its IC50 is > 83.3 µM (inactive).

What does the source list for `CC/C(C)=N/NS(=O)(=O)c1ccc(C)c([N+](=O)[O-])c1`?
EC50 [1]: > 99 µM (inactive); EC50 [2]: 7.91 µM (active)

For `CC(/C=C/c1ccco1)=N\NC(=O)CNc1ccc2ccccc2c1`, which IC50 [16] is on record?
The IC50 was > 50 µM (not active).

For `CC(C)CCNC(=O)c1cc(-c2ccc(Cl)cc2Cl)n[nH]1`, which IC50 [17] is on record?
Its IC50 is > 10 µM (inconclusive).
